Measurements as given in ChEMBL document CHEMBL1146213, “Biscembranoids and their probable biogenetic precursor from the Hainan soft coral Sarcophyton tortuosum” (J Nat Prod, 2007).
The source made the active and inactive calls.

Tests used:
P388 = experiment: Antitumor activity against P388 cells; assay type: functional, cell-based; details: Mus musculus
Cladosporium cucumerinum = experiment: Antifungal activity against Cladosporium cucumerinum; assay type: functional, organism-based
A549 = experiment: Antitumor activity against A549 cells; assay type: functional, cell-based; details: Homo sapiens

Measured: Activity

C=C1CC[C@@H]2O[C@@H]1CC/C(C)=C/[C@@H]1C(=C(C)C[C@H]3C(=O)C[C@H](C)CCC[C@H](C)C(=O)C[C@H](C(C)C)C(=O)C[C@@]13C(=O)OC)[C@H](O)C[C@@]2(C)O
inactive: all assays above

COC(=O)[C@@]12CC(=O)[C@@H](C(C)C)CC(=O)[C@@H](C)CCC[C@@H](C)/C=C3\O[C@@](C)(C[C@@H]31)/C1=C/C[C@](C)(O)[C@H]3CC[C@@](C)(O3)[C@H](O)CC/C(C)=C/[C@H]12
inactive: all assays above

COC(=O)[C@@]12CC(=O)[C@@H](C(C)C)CC(=O)[C@@H](C)CCC[C@@H](C)CC(=O)[C@@H]1CC(C)=C1[C@H](O)C[C@@]3(C)O[C@@H]3CC[C@@]3(C)O[C@@H]3CC/C(C)=C/[C@H]12
inactive: all assays above

COC(=O)/C1=C/C(=O)C[C@H](C)CCC[C@H](C)C(=O)C[C@H](C(C)C)C(=O)C1
inactive: all assays above

COC(=O)[C@@]12CC(=O)[C@@H](C(C)C)CC(=O)[C@@H](C)CCC[C@@H](C)CC(=O)[C@@H]1CC(C)=C1[C@H](O)C[C@@](C)(Cl)[C@@H](O)CC[C@@]3(C)O[C@@H]3CC/C(C)=C/[C@H]12
inactive: all assays above

COC(=O)[C@@]12CC(=O)[C@@H](C(C)C)CC(=O)[C@@H](C)CCC[C@@H](C)CC(=O)[C@@H]1CC(C)=C1[C@H](O)C[C@](C)(Cl)[C@H]3CC[C@@](C)(O3)[C@H](O)CC/C(C)=C/[C@H]12
inactive: all assays above
